Measured values from patent US8119630B2 (Arrow Therapeutics Limited, priority 2002, dated 2012).
Where two headings read alike, the source gives them in different places.

Tests used:
RSV = experiment: XTT assay, RSV-infected Vero cells; format: cell-based, Respiratory Syncytial Virus (RSV); settings: Vero cells infected with RSV, m.o.i.≈0.2, 6 days at 33° C.
Method: Examples 1 to 74 and 83 to 124 were tested using the following protocol.
(§1) The inner 60 wells of 96 well tissue culture plates were seeded with Vero cells at 3×10^4 cells/well (1×10^4 cells/well for toxicity studies) in 100 or 150 μl of medium and incubated at 37° C. overnight or until nearing confluency. For primary screen, 25 μl compounds were added directly to 100 μl medium in single wells to duplicate plates. A third plate was prepared for simultaneous toxicity investigation.
(§2) For follow-up investigation, 70 μl of compound in duplicate wells were added directly to culture medium at 3.2× final concentration and ½ log serially diluted down columns of plate. A duplicate plate was prepared for simultaneous toxicity investigation.
(§3) Cells were infected with 25 μl RSV to give m.o.i.≈0.2. Some 100 μl of sterile distilled water were added to the outer wells of the plate and incubated at 33° C. for 6 days. Some 0.25 μl/ml PMS were added to stock XTT solution, final conc. […]. Then 25 μl warmed XTT/PMS solution were added to each well and incubated for 5 hours at 37° C. Plates were shaken (DynaTech Vari-Shaker) vigorously for 10 mins and allowed to cool for 15 mins before sealing. Absorbance at 450 nm was measured and data analysed using Microsoft Excel software.
Maximum OD450nm reading (uninfected, untreated control cells) corresponded to 100% inhibition. Minimum OD450nm readings (infected control cells) corresponded to 0% inhibition. Log 10 concentration was plotted against OD450nm and IC50 (Table 1) values were calculated from either reading 50% value from graph or using regression analysis.

Vero cells = experiment: Simultaneous toxicity investigation (XTT), Vero cells; format: cell-based; design: unit not given here; settings: for TC50 (2d): Table 2, Examples 83 to 124, 2d; for TC50 (6d): Table 2, Examples 83 to 124, 6d
Method: as §1, §2
as §3, with “Some 100 μl of sterile distilled water were added to the outer wells of the plate and incubated at 33° C. for 6 days.” left out

[1] = human respiratory syncytial virus, Vero, 144 h, read-out: XTT IC50 (uM), Table 2, Examples 83 to 124

SMILES | IC50 (RSV; [1]) [µM] | TC50 (2d) (Vero cells) | TC50 (6d) (Vero cells) | IC50 (RSV; Table 2, Examples 83 to 124, read-out: XTT IC50) [µM]
COc1ccc(C(=O)NC2N=C(c3ccccc3F)c3cc(Cl)ccc3NC2=O)cc1 (stereo not drawn) [Example 83, N-[7-Chloro-5-(2-fluoro-phenyl)-2-oxo-2,3-dihydro-1H-benzo[e][1,4]diazepine-3-yl]-4-methoxy-benzamide] | 6 | >100 | 32 | 
O=C(NCc1ccccc1F)NC1N=C(c2ccccc2)c2ccccc2NC1=O (stereo not drawn) [Example 84, 1-(2-Fluoro-benzyl)-3-(2-oxo-5-phenyl-2,3-dihydro-1H-benzo[e][1,4]diazepin-3-yl)-urea] | 2 | >100 | >100 | 
COc1ccc(CNC(=O)NC2N=C(c3ccccc3)c3ccccc3NC2=O)cc1 (stereo not drawn) [Example 85, 1-(4-Methoxy-benzyl)-3-(2-oxo-5-phenyl-2,3-dihydro-1H-benzo[e][1,4]diazepin-3-yl)-urea] | 4 | >100 | >100 | 
Cc1cccc(CNC(=O)NC2N=C(c3ccccc3)c3ccccc3NC2=O)c1 (stereo not drawn) [Example 86, 1-(3-Methyl-benzyl)-3-(2-oxo-5-phenyl-2,3-dihydro-1H-benzo[e][1,4]diazepin-3-yl)-urea] | 3 | >100 | 100 | 
O=C(Nc1ccc(C(F)(F)F)cc1)NC1N=C(c2ccccc2)c2ccccc2NC1=O (stereo not drawn) [Example 87, 1-(2-Oxo-5-phenyl-2,3-dihydro-1H-benzo[e][1,4]diazepin-3-yl)-3-(4-trifluoromethyl-phenyl)-urea] | 4 | 50 | 50 | 
COc1cc(Cl)ccc1C(=O)NC1N=C(c2ccccc2)c2ccccc2NC1=O (stereo not drawn) [Example 88, 4-Chloro-2-methoxy-N-(2-oxo-5-phenyl-2,3-dihydro-1H-benzo[e][1,4]diazepin-3-yl)-benzamide] | 0.3 | 100 | 40 | 
COc1ccc(C(=O)NC2N=C(c3ccccc3)c3ccccc3NC2=O)cc1[N+](=O)[O-] (stereo not drawn) [Example 89, 4-Methoxy-3-nitro-N-(2-oxo-5-phenyl-2,3-dihydro-1H-benzo[e][1,4]diazepin-3-yl)benzamide] | 0.8 | >100 | >100 | 
COc1cccc(C(=O)NC2N=C(c3ccccc3)c3ccccc3NC2=O)c1[N+](=O)[O-] (stereo not drawn) [Example 90, 3-Methoxy-2-nitro-N-(2-oxo-5-phenyl-2,3-dihydro-1H-benzo[e][1,4]diazepin-3-yl)-benzamide] | 0.5 | 100 | 100 | 
COc1ccc(Cl)cc1C(=O)NC1N=C(c2ccccc2)c2ccccc2NC1=O (stereo not drawn) [Example 91, 5-chloro-2-methoxy-N-(2-oxo-5-phenyl-2,3-dihydro-1H-benzo[e][1,4]diazepin-3-yl)benzamide] | 0.3 | 100 | 100 | 
COc1ccc(F)cc1C(=O)NC1N=C(c2ccccc2)c2ccccc2NC1=O (stereo not drawn) [Example 92, 5-Fluoro-2-methoxy-N-(2-oxo-5-phenyl-2,3-dihydro-1H-benzo[e][1,4]diazepin-3-yl)-benzamide] | < 0.3 | 100 | 100 | 
COc1cc([N+](=O)[O-])ccc1C(=O)NC1N=C(c2ccccc2)c2ccccc2NC1=O (stereo not drawn) [Example 93, 2-Methoxy-4-nitro-N-(2-oxo-5-phenyl-2,3-dihydro-1H-benzo[e][1,4]diazepin-3-yl)-benzamide] | < 0.3 | 100 | >100 | 
COc1ccc([N+](=O)[O-])c(C(=O)NC2N=C(c3ccccc3)c3ccccc3NC2=O)c1 (stereo not drawn) [Example 94, 5-Methoxy-2-nitro-N-(2-oxo-5-phenyl-2,3-dihydro-1H-benzo[e][1,4]diazepin-3-yl)-benzamide] | 1.5 | >100 | >100 | 
COc1cc(C(=O)NC2N=C(c3ccccc3)c3ccccc3NC2=O)ccc1[N+](=O)[O-] (stereo not drawn) [Example 95, 3-Methoxy-4-nitro-N-(2-oxo-5-phenyl-2,3-dihydro-1H-benzo[e][1,4]diazepin-3-yl)-benzamide] | 1.5 | 100 | >100 | 
COc1ccccc1CCC(=O)NC1N=C(c2ccccc2)c2ccccc2NC1=O (stereo not drawn) [Example 96, 3-(2-Methoxy-phenyl)-N-(2-oxo-5-phenyl-2,3-dihydro-1H-benzo[e][1,4]diazepin-3-yl)propionamide] | 5 | >100 | >100 | 
COc1cccc(CCC(=O)NC2N=C(c3ccccc3)c3ccccc3NC2=O)c1 (stereo not drawn) [Example 97, 3-(3-Methoxy-phenyl)-N-(2-oxo-5-phenyl-2,3-dihydro-1H-benzo[e][1,4]diazepin-3-yl)-propionamide] | 5 | >100 | >100 | 
COc1ccc(CCC(=O)NC2N=C(c3ccccc3)c3ccccc3NC2=O)cc1 (stereo not drawn) [Example 98, 3-(4-Methoxy-phenyl)-N-(2-oxo-5-phenyl-2,3-dihydro-1H-benzo[e][1,4]diazepin-3-yl)-propionamide] | 5 | >100 | >100 | 
COc1ccccc1C(=O)NC1N=C(c2cccc(Cl)c2)c2ccccc2NC1=O (stereo not drawn) [Example 99, N-[5-(3-Chloro-phenyl)-2-oxo-2,3-dihydro-1H-benzo[e][1,4]diazepin-3-yl]-2-methoxy-benzamide] | 1 | 100 | >100 | 
COc1ccc(C(=O)NC2N=C(c3ccc(C(F)(F)F)cc3)c3ccccc3NC2=O)cc1 (stereo not drawn) [Example 103, 4-Methoxy-N-[2-oxo-5-(4-trifluoromethyl-phenyl)-2,3-dihydro-1H-benzo[e][1,4]diazepin-3-yl]-benzamide] | 7 | >100 | 30 | 
COc1ccccc1C(=O)NC1N=C(c2cccc(C(F)(F)F)c2)c2ccccc2NC1=O (stereo not drawn) [Example 104, 2-Methoxy-N-[2-oxo-5-(3-trifluoromethyl-phenyl)-2,3-dihydro-1H-benzo[e][1,4]diazepin-3-yl]-benzamide] | 5 | >100 | >100 | 
COc1ccc(C(=O)NC2N=C(c3cccc(C(F)(F)F)c3)c3ccccc3NC2=O)cc1 (stereo not drawn) [Example 105] |  | >100 | >100 | 9
CCOc1ccccc1C(=O)NC1N=C(c2ccccc2)c2ccccc2NC1=O (stereo not drawn) [Example 106, 2-Ethoxy-N-(2-oxo-5-phenyl-2,3-dihydro-1H-benzo[e][1,4]diazepin-3-yl)-benzamide] | 0.7 | >100 | >100 | 
COc1ccc(C(=O)NC2N=C(c3ccccc3)c3ccccc3NC2=O)c(OC)c1 (stereo not drawn) [Example 107, 2,4-Dimethoxy-N-(2-oxo-5-phenyl-2,3-dihydro-1H-benzo[e][1,4]diazepin-3-yl)-benzamide] | < 0.3 | 60 | 60 | 
COc1ccc(Br)c(C(=O)NC2N=C(c3ccccc3)c3ccccc3NC2=O)c1 (stereo not drawn) [Example 108, 2-Bromo-5-methoxy-N-(2-oxo-5-phenyl-2,3-dihydro-1H-benzo[e][1,4]diazepin-3-yl)-benzamide] | 2 | >100 | >100 | 
COc1cccc(C2=NC(NC(=O)c3ccccc3OC)C(=O)Nc3ccccc32)c1 (stereo not drawn) [Example 109, 2-Methoxy-N-[5-(3-methoxy-phenyl)-2-oxo-2,3-dihydro-1H-benzo[e][1,4]diazepin-3-yl]-benzamide] | 2 | 50 | 100 | 
COc1ccccc1C(=O)NC1N=C(c2ccccc2)c2ccc(C)cc2NC1=O (stereo not drawn) [Example 111, 2-Methoxy-N-(8-methyl-2-oxo-5-phenyl-2,3-dihydro-1H-benzo[e][1,4]diazepin-3-yl)-benzamide] | 3 | >100 | >100 | 
CS(=O)(=O)c1ccc(C(=O)NC2N=C(c3ccccc3)c3ccccc3NC2=O)c(Cl)c1 (stereo not drawn) [Example 112, 2-Chloro-4-methanesulfonyl-N-(2-oxo-5-phenyl-2,3-dihydro-1H-benzo[e][1,4]diazepin-3-yl)-benzamide] | 1.5 | >100 | >100 | 
CN(C)c1ccccc1C(=O)NC1N=C(c2ccccc2)c2ccccc2NC1=O (stereo not drawn) [Example 113, 2-Dimethylamino-N-(2-oxo-5-phenyl-2,3-dihydro-1H-benzo[e][1,4]diazepin-3-yl)-benzamide] | 1.5 | >100 | >100 | 
